Active and inactive are the calls of the source. The calls are words filed in the database; no cut-off is given here.
Assays:
Danio rerio [1] = species: Danio rerio; assay: Anti osteoporosis activity in prednisone induced wildtype 3 days post-fertilization AB zebrafish osteoporosis model assessed as increase in bone fluorescence intensity (RVB = 13620 +/- 1692); format: functional
MC3T3-E1 [2] = assay: Induction of ALP activity in mouse MC3T3-E1 cells in osteogenic differentiation culture at 1 uM measured on day 7; format: functional, cell-based; details: time 7.0 day
hERG (KCNH2) [3] = biological target: T1, hERG (KCNH2) (Homo sapiens, UniProt Q12809); assay: Inhibition of human ERG stably expressed in CHO cells at 0.3 uM by whole-cell patch clamp method relative to control; format: toxicity, cell-based; details: CHO cells stably expressing human ERG
T1 sequence (Q12809 whole entry): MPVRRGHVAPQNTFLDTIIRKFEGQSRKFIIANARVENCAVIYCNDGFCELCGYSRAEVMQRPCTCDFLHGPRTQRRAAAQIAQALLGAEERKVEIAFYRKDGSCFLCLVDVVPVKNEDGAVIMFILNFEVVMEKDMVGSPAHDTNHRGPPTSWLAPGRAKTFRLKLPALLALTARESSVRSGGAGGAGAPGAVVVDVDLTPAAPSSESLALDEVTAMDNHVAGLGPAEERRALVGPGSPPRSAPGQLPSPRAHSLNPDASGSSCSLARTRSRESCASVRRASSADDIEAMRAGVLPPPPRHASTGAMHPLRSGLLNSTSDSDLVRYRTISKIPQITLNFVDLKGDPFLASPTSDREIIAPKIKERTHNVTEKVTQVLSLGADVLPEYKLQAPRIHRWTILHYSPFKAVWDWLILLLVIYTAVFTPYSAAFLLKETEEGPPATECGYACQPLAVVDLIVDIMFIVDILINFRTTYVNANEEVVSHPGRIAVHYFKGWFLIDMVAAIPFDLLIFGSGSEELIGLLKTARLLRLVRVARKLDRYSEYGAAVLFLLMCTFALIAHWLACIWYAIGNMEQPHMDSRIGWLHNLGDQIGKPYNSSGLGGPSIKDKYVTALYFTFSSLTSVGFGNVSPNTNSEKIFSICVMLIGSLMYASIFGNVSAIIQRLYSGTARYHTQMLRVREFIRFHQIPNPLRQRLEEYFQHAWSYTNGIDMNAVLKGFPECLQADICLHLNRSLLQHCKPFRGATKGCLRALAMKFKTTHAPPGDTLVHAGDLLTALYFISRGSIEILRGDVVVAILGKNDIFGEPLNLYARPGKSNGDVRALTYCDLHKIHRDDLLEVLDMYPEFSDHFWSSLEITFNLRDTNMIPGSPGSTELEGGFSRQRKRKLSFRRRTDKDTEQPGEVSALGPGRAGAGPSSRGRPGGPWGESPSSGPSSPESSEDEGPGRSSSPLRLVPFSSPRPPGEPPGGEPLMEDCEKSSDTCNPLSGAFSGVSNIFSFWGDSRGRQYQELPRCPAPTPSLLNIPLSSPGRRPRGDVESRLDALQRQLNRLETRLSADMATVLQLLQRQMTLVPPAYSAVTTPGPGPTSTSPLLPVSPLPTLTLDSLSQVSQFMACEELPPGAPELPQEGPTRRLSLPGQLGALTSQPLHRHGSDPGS

MC3T3-E1 [4] = assay: Cytotoxicity against mouse MC3T3-E1 cells; format: toxicity, cell-based
[5] = MRT (0 to infinity) in Sprague-Dawley rat by measuring metabolite 6-methoxybenzofuran-2-carboxylic acid at 2 mg/kg, iv; format: ADME, organism-based; details: in vivo
hERG (KCNH2) [6] = biological target: T1, hERG (KCNH2); assay: Inhibition of human ERG stably expressed in CHO cells at 1 uM by whole-cell patch clamp method relative to control; format: toxicity, cell-based; details: CHO cells stably expressing human ERG
[7] = Permeability from basolateral to apical side in human Caco-2 cells assessed as recovery incubated upto 95 mins by LC-MS/MS analysis relative control; format: ADME, cell-based; details: read-out: Drug recovery
[8] = Oral bioavailability in Sprague-Dawley rat by measuring metabolite 6-methoxybenzofuran-2-carboxylic acid at 10 mg/kg; format: ADME, organism-based; details: in vivo
hERG (KCNH2) [9] = biological target: T1, hERG (KCNH2); assay: Inhibition of human ERG stably expressed in CHO cells at 3 uM by whole-cell patch clamp method relative to control; format: toxicity, cell-based; details: CHO cells stably expressing human ERG
hERG (KCNH2) [10] = biological target: T1, hERG (KCNH2); assay: Inhibition of human ERG stably expressed in CHO cells at 10 uM by whole-cell patch clamp method relative to control; format: toxicity, cell-based; details: CHO cells stably expressing human ERG
Cytochrome P450 3A4 [11] = biological target: T2, Cytochrome P450 3A4 (Homo sapiens, UniProt P08684); assay: Inhibition of CYP3A4 (unknown origin) using midazolam as substrate (reference value: 0.0413 uM); format: ADME
T2 sequence (P08684 whole entry): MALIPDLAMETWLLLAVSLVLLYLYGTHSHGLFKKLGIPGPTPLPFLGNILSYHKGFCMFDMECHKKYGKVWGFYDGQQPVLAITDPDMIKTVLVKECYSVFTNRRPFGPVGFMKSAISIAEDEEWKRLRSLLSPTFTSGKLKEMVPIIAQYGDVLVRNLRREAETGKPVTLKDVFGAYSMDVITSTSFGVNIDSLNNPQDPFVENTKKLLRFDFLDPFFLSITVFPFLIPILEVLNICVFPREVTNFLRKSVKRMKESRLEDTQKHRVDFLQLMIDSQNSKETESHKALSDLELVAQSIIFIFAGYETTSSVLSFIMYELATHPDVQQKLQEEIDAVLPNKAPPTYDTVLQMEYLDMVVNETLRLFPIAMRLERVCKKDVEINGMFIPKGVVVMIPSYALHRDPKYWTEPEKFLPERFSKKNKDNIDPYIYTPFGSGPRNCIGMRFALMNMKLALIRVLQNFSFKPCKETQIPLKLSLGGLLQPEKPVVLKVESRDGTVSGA

[12] = Apparent permeability from basolateral to apical side in human Caco-2 cells incubated upto 95 mins by LC-MS/MS analysis; format: ADME, cell-based; details: read-out: permeability
hERG (KCNH2) [13] = biological target: T1, hERG (KCNH2); assay: Inhibition of human ERG stably expressed in CHO cells at 0.1 uM by whole-cell patch clamp method relative to control; format: toxicity, cell-based; details: CHO cells stably expressing human ERG
[14] = Half life in Sprague-Dawley rat by measuring metabolite 6-methoxybenzofuran-2-carboxylic acid at 2 mg/kg, iv; format: ADME, organism-based; details: in vivo
[15] = AUC (0 to t) in Sprague-Dawley rat by measuring metabolite 6-methoxybenzofuran-2-carboxylic acid at 2 mg/kg, iv; format: ADME, organism-based; parameters: dose 2 mg/kg, route iv; details: in vivo
Danio rerio [16] = species: Danio rerio; assay: Anti osteoporosis activity in prednisone induced wildtype 3 days post-fertilization AB zebrafish osteoporosis model assessed as increase in bone fluorescence intensity; format: functional, organism-based; details: dose 0.078-1.25 µM
Cytochrome P450 2C9 = Cytochrome P450 2C9 (Homo sapiens, UniProt P11712); assay: Inhibition of CYP2C9 (unknown origin) using tolbutamide as substrate (reference value: 1.9 uM); format: ADME
Cytochrome P450 2C9, sequence (P11712 whole entry): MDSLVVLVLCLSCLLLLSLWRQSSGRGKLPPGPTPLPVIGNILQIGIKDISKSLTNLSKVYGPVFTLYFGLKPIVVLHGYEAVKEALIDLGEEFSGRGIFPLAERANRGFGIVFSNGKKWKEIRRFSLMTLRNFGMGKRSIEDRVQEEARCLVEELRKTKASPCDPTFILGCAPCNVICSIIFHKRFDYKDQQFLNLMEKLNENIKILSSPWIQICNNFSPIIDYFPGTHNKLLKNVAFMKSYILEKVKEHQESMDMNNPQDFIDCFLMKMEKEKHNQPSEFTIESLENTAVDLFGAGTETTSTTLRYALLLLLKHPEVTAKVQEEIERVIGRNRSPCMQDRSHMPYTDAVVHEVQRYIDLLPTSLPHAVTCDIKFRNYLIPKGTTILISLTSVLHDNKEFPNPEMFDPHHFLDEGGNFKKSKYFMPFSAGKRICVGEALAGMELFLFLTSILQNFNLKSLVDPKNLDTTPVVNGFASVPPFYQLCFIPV

[17] = AUC (0 to infinity) in Sprague-Dawley rat by measuring metabolite 6-methoxybenzofuran-2-carboxylic acid at 2 mg/kg, iv; format: ADME, organism-based; parameters: dose 2 mg/kg, route iv; details: in vivo
Danio rerio [18] = species: Danio rerio; assay: Anti osteoporosis activity in prednisone induced wildtype 3 days post-fertilization AB zebrafish osteoporosis model assessed as increase in bone mass at 1.25 uM relative to normal control group; format: functional, organism-based
[19] = Efflux ratio of apparent permeability from basolateral side to apical side over apical side to basolateral side in human Caco-2 cells; format: ADME, cell-based
[20] = Apparent permeability from apical to basolateral side in human Caco-2 cells incubated upto 95 mins by LC-MS/MS analysis; format: ADME, cell-based; details: read-out: permeability
Cytochrome P450 2C19 = Cytochrome P450 2C19 (Homo sapiens, UniProt P33261); assay: Inhibition of CYP2C19 (unknown origin) using mephenytoin as substrate (reference value: 2.77 uM); format: ADME
Cytochrome P450 2C19, sequence (P33261 whole entry): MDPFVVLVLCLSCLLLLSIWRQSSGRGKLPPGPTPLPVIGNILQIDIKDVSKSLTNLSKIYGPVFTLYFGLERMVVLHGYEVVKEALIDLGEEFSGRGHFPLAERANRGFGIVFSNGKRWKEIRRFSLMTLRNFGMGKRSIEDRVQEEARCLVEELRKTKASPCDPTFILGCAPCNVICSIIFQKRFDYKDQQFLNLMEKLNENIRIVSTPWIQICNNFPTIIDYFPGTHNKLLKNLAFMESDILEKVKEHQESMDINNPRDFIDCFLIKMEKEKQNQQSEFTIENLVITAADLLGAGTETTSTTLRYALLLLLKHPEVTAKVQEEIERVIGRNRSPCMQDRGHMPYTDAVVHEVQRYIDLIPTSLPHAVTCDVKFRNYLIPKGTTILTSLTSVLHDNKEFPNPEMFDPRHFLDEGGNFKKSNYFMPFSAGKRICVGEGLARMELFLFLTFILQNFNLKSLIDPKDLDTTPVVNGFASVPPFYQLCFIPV

Cytochrome P450 3A4 [21] = biological target: T2, Cytochrome P450 3A4; assay: Inhibition of CYP3A4 (unknown origin) using testosterone as substrate (reference value: 0.0227 uM); format: ADME
[22] = MRT (0 to infinity) in Sprague-Dawley rat by measuring metabolite 6-methoxybenzofuran-2-carboxylic acid at 10 mg/kg, po; format: ADME, organism-based; details: in vivo
[23] = Cmax in Sprague-Dawley rat by measuring metabolite 6-methoxybenzofuran-2-carboxylic acid at 10 mg/kg, po; format: ADME, organism-based; parameters: dose 10 mg/kg, route po; details: in vivo
[24] = Permeability from apical to basolateral side in human Caco-2 cells assessed as recovery incubated upto 95 mins by LC-MS/MS analysis relative control; format: ADME, cell-based; details: read-out: Drug recovery
[25] = Half life in Sprague-Dawley rat by measuring metabolite 6-methoxybenzofuran-2-carboxylic acid at 10 mg/kg, po; format: ADME, organism-based; details: in vivo
[26] = Tmax in Sprague-Dawley rat by measuring metabolite 6-methoxybenzofuran-2-carboxylic acid at 10 mg/kg, po; format: ADME, organism-based; details: in vivo
Danio rerio [27] = species: Danio rerio; assay: Anti osteoporosis activity in prednisone induced wildtype 3 days post-fertilization AB zebrafish osteoporosis model assessed as increase in bone mass; format: functional, organism-based; details: dose 0.078-1.25 µM
Cytochrome P450 1A2 = biological target: T3, Cytochrome P450 1A2 (Homo sapiens, UniProt P05177); assay: Inhibition of CYP1A2 (unknown origin) using phenacetin as substrate (reference value: 0.0292 uM); format: ADME
T3 sequence (P05177 whole entry): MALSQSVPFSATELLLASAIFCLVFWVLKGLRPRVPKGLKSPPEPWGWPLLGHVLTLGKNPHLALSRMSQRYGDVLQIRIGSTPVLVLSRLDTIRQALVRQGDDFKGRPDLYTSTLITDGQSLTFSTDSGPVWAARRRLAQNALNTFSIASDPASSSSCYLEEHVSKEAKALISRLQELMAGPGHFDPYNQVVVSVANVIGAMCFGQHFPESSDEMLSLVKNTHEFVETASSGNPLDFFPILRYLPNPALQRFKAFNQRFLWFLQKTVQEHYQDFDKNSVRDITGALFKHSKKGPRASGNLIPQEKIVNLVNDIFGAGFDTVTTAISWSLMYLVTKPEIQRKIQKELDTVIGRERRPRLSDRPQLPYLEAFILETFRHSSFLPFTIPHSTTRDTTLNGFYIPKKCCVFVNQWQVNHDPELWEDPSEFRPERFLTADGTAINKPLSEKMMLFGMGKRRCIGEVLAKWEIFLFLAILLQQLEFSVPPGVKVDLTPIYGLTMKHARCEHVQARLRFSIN

[28] = AUC (0 to infinity) in Sprague-Dawley rat by measuring metabolite 6-methoxybenzofuran-2-carboxylic acid at 10 mg/kg, po; format: ADME, organism-based; parameters: dose 10 mg/kg, route po; details: in vivo
[29] = Volume of distribution at steady state in Sprague-Dawley rat by measuring metabolite 6-methoxybenzofuran-2-carboxylic acid at 2 mg/kg, iv; format: ADME, organism-based; details: in vivo
[30] = Cmax in Sprague-Dawley rat by measuring metabolite 6-methoxybenzofuran-2-carboxylic acid at 2 mg/kg, iv; format: ADME, organism-based; parameters: dose 2 mg/kg, route iv; details: in vivo
[31] = AUC (0 to t) in Sprague-Dawley rat by measuring metabolite 6-methoxybenzofuran-2-carboxylic acid at 10 mg/kg, po; format: ADME, organism-based; parameters: dose 10 mg/kg, route po; details: in vivo
Danio rerio [32] = species: Danio rerio; assay: Anti osteoporosis activity in prednisone induced wildtype 3 days post-fertilization AB zebrafish osteoporosis model assessed as increase in osteoblast by measuring fluorescence intensity; format: functional, organism-based; details: dose 0.078-1.25 µM
Cytochrome P450 2D6 = Cytochrome P450 2D6 (Homo sapiens, UniProt P10635); assay: Inhibition of CYP2D6 (unknown origin) using dextromethorphan as substrate (reference value: 0.0445 uM); format: ADME
Cytochrome P450 2D6, sequence (P10635 whole entry): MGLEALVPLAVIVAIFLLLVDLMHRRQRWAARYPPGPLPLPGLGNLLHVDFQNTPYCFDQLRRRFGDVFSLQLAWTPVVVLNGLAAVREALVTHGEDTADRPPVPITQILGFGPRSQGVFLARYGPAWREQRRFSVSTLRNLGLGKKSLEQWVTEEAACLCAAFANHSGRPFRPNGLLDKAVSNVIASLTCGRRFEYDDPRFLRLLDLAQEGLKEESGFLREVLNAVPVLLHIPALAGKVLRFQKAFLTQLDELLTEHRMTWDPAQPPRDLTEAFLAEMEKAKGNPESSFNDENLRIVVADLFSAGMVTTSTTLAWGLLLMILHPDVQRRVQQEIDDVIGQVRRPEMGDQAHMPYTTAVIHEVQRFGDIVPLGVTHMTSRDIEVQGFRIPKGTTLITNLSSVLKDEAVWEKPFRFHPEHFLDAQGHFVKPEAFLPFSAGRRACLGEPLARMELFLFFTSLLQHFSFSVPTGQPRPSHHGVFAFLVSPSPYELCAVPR

COc1ccc2cc(C(=O)NCC(=O)NCCN3CCCCC3)oc2c1
Flu intensity (Danio rerio [1]): 31141
Activity (MC3T3-E1 [2]): Active

COc1ccc2cc(C(=O)NCC(=O)O)oc2c1
Flu intensity (Danio rerio [1]): 22567

COc1ccc2cc(C(=O)N[C@H](Cc3ccccc3)C(=O)O)oc2c1
Flu intensity (Danio rerio [1]): 27422

CC(O)(P(=O)([O-])O)P(=O)([O-])O.[Na+].[Na+] [ETIDRONATE DISODIUM]
Flu intensity (Danio rerio [1]): 23897

CCN(CC)CCCNC(=O)c1cc2ccc(OC)cc2o1
Flu intensity (Danio rerio [1]): 31394
Activity (MC3T3-E1 [2]): Active

COc1ccc2cc(C(=O)OCCN3CCCCC3)oc2c1
Flu intensity (Danio rerio [1]): 23536

COc1ccc2cc(C(=O)N3CCC(O)CC3)oc2c1
Flu intensity (Danio rerio [1]): 20648

COc1ccc2cc(C(=O)NCCN3CCCCC3)oc2c1
Flu intensity (Danio rerio [1]): 23225

COc1cc(N)c(Cl)cc1C(=O)NC1CCN(CCCOc2ccc(F)cc2)CC1OC (stereo not drawn) [CISAPRIDE]
inhibition at 0.3 µM (hERG (KCNH2) [3]): 98.2%

COc1ccc2cc(C(=O)NCC(=O)NCCN(C)C)oc2c1
Flu intensity (Danio rerio [1]): 23919

COc1ccc2cc(C(=O)N[C@H](C)C(=O)O)oc2c1
Flu intensity (Danio rerio [1]): 17768

COc1ccc2cc(C(=O)NC3CCC(O)CC3)oc2c1 (stereo not drawn)
Flu intensity (Danio rerio [1]): 25882

COc1ccc2cc(C(=O)NCCN3CCOCC3)oc2c1
Flu intensity (Danio rerio [1]): 26682

COc1ccc2cc(C(=O)N3CCC(c4ccncc4)CC3)oc2c1
Flu intensity (Danio rerio [1]): 30379
Activity (MC3T3-E1 [4]): Toxic

COc1ccc2cc(C(=O)OCCN3CCCC3)oc2c1
Flu intensity (Danio rerio [1]): 24697

COc1ccc2cc(C(=O)N3CCC(c4ccc(F)cc4)CC3)oc2c1
Flu intensity (Danio rerio [1]): 13963

COc1ccc2cc(C(=O)N[C@H](CC(C)C)C(=O)O)oc2c1
Flu intensity (Danio rerio [1]): 20236

COc1ccc2cc(C(=O)NCCN3CCCC3)oc2c1
Flu intensity (Danio rerio [1]): 20961

CCN(CC)CCCCNC(=O)c1cc2ccc(OC)cc2o1
Flu intensity (Danio rerio [1]): 21289

COc1ccc2cc(C(=O)OCCN3CCN(C)CC3)oc2c1
Flu intensity (Danio rerio [1]): 23765

COc1ccc2cc(C(=O)NCCN3CCN(C)CC3)oc2c1
Flu intensity (Danio rerio [1]): 25904

COc1ccc2cc(C(=O)NCCN3CCNCC3)oc2c1
Flu intensity (Danio rerio [1]): 21709

COc1ccc2cc(C(=O)N3CCN(C)CC3)oc2c1
Flu intensity (Danio rerio [1]): 23902

COc1ccc2cc(C(=O)N3CCC(C(F)(F)F)CC3)oc2c1
Flu intensity (Danio rerio [1]): 16975

COc1ccc2cc(C(=O)N[C@@H](C(=O)O)C(C)C)oc2c1
Flu intensity (Danio rerio [1]): 30880
Activity (MC3T3-E1 [2]): Active

COc1ccc2cc(C(=O)NCCCN(C)C)oc2c1
Flu intensity (Danio rerio [1]): 18114

COc1ccc2cc(C(=O)NCC(=O)NCCN3CCCC3)oc2c1
Flu intensity (Danio rerio [1]): 21953

COc1ccc2cc(C(=O)OCCN3CCOCC3)oc2c1
MRT [5]: 1.25 h
inhibition at 1 µM (hERG (KCNH2) [6]): 6.15%
recovery at 1.583 h [7]: 74.3%
F [8]: 113%
inhibition at 3 µM (hERG (KCNH2) [9]): 9.81%
inhibition at 10 µM (hERG (KCNH2) [10]): 20.6%
IC50 (Cytochrome P450 3A4 [11]): > 25 µM
Papp B→A at 1.583 h [12]: 5.53 ×10⁻⁶ cm/s
inhibition at 0.1 µM (hERG (KCNH2) [13]): 4.69%
t1/2 [14]: 2.15 h
AUC [15]: 4557 ng·h/mL
inhibition at 0.3 µM (hERG (KCNH2) [3]): 2.36%
Flu intensity (Danio rerio [1]): 33746
Activity (Danio rerio [16]): Dose-Dependent Effect
IC50 (Cytochrome P450 2C9): > 25 µM
AUC [17]: 4635 ng·h/mL
Activity (Danio rerio [18]): Active
efflux ratio [19]: 1.65
Papp A→B at 1.583 h [20]: 3.35 ×10⁻⁶ cm/s
IC50 (Cytochrome P450 2C19): > 25 µM
IC50 (Cytochrome P450 3A4 [21]): > 25 µM
MRT [22]: 2.26 h
Cmax [23]: 10380 ng/mL
recovery at 1.583 h [24]: 22.7%
t1/2 [25]: 3.07 h
Tmax [26]: 0.25 h
Activity (Danio rerio [27]): Dose-Dependent Effect
IC50 (Cytochrome P450 1A2): 17 µM
AUCt [28]: 25873 ng·h/mL
Vdss [29]: 0.545 L/kg
Activity (MC3T3-E1 [2]): Active
Cmax [30]: 3943 ng/mL
AUCt [31]: 25724 ng·h/mL
Activity (Danio rerio [32]): Dose-Dependent Effect
IC50 (Cytochrome P450 2D6): > 25 µM

COc1ccc2cc(C(=O)NCC(=O)OCCN(C)C)oc2c1
Flu intensity (Danio rerio [1]): 26758

COc1ccc2cc(C(=O)NCCCCN(C)C)oc2c1
Flu intensity (Danio rerio [1]): 25439
